“And” between values parts separate entries of the source, which are not always exact repeats. Equal entries are not always repeated.
Tests used:
A549 cells = assay: Cytotoxicity potentiation assay (topotecan); assay type: cell-based; conditions: test compound at 0.4 μM, ratio of IC50 of topotecan alone to IC50 of topotecan with test compound
purified PARP protein = purified PARP protein (Homo sapiens, UniProt P09874); assay: PARP enzyme inhibition assay; assay type: biochemical; conditions: [32P]NAD+ incorporation, 500 μM NAD+, 25° C.; two values in a cell = tested twice; read-out: Inhibition Constant Ki
Sequence of purified PARP protein (P09874 whole entry): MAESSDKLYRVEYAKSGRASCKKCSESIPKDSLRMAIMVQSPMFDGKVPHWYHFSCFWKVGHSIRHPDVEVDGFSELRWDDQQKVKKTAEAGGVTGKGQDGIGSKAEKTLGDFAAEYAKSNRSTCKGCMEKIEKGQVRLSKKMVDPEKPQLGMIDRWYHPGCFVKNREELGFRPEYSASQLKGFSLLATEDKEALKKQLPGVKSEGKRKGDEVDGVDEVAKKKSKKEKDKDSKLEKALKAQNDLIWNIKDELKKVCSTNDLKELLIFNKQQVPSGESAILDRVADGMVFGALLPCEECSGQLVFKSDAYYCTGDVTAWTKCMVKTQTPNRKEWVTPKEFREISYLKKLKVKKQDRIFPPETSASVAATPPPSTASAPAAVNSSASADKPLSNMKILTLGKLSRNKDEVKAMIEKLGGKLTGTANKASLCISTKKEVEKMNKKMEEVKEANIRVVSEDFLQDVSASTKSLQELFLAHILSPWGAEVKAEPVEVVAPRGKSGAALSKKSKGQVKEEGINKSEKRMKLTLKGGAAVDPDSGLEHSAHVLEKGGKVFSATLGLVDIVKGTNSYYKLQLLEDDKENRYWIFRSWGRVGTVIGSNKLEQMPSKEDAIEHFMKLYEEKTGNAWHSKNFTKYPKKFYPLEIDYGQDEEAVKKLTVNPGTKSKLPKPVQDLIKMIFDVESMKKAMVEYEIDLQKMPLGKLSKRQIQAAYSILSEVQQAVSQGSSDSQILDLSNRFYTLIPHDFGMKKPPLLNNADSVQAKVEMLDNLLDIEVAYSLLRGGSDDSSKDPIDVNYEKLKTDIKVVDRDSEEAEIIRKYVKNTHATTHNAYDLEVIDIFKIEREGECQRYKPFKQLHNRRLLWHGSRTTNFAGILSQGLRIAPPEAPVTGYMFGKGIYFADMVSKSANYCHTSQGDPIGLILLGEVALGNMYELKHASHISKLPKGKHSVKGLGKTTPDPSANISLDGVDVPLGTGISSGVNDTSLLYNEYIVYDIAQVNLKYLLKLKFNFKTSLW

CN(C)Cc1ccc(-c2[nH]c3cccc4c3c2CNC4=O)cc1 [Compound 6]
Cytotoxicity Potentiation PF50 (A549 cells): 2.2

O=C1NCCc2c(-c3ccccc3)[nH]c3cccc1c23 [Compound 12, 2-Phenyl-3,4,5,6-tetrahydro-1H-azepino[5,4,3-cd]indol-6-one]
Cytotoxicity Potentiation PF50 (A549 cells): 1.8
Ki (purified PARP protein): 4.2 nM

CN(C)Cc1ccc(-c2[nH]c3cccc4c3c2CCNC4=O)cc1 [Compound 21, 2-(4-(N,N-Dimethylamino)methylphenyl)-3,4,5,6-tetrahydro-1H-azepino[5,4,3-cd]indol-6-one]
Cytotoxicity Potentiation PF50 (A549 cells): 2.4

O=C1NCCc2c(-c3ccc(F)cc3)[nH]c3cccc1c23 [Compound 23, 2-(4-Fluorophenyl)-3,4,5,6-tetrahydro-1H-azepino[5,4,3-cd]indol-6-one]
Cytotoxicity Potentiation PF50 (A549 cells): 2.3

O=C1NN=Cc2c[nH]c3cccc1c23 [Compound 27, 1,5-Dihydro-[1,2]diazepino[4,5,6-cd]-indol-6-one]
Cytotoxicity Potentiation PF50 (A549 cells): 1.3
Ki (purified PARP protein): 3.4 nM

O=C1NN=C(c2ccccc2)c2c[nH]c3cccc1c23 [Compound 28, 1,5-Dihydro-3-phenyl-[1,2]diazepino[4,5,6-cd]-indol-6-one]
Cytotoxicity Potentiation PF50 (A549 cells): 1
Ki (purified PARP protein): 4 nM and 3.8 nM

O=C1NN=C(CCc2ccccc2)c2c[nH]c3cccc1c23 [Compound 29, 1,5-Dihydro-3-phenethyl-[1,2]diazepino[4,5,6-cd]-indol-6-one]
Cytotoxicity Potentiation PF50 (A549 cells): 1
Ki (purified PARP protein): 8 nM

O=C(Nc1ccc(F)cc1)c1[nH]c2cccc3c2c1CCNC3=O [Compound YYY, 6-Oxo-3,4,5,6-tetrahydro-1H-azepino[5,4,3-cd]indole-2-carboxylic acid (4-fluorophenyl)-amide]
Cytotoxicity Potentiation PF50 (A549 cells): 1.5
Ki (purified PARP protein): 6.3 nM

CCCCCCCCOC(=O)c1[nH]c2cccc3c2c1CCNC3=O [FFF, 6-Oxo-3,4,5,6-tetrahydro-1H-azepino[5,4,3-cd]indole-2-carboxylic acid octyl ester]
melting point: 170 to 171 °C
Ki (purified PARP protein): 125 nM

C[S+]([O-])c1ccc(-c2[nH]c3cccc4c3c2CCNC4=O)cc1 (stereo not drawn) [FFFF, 2-(4-Methanesulfinyl-phenyl)-1,3,4,5-tetrahydro-azepino[5,4,3-cd]indol-6-one]
melting point: 316 to 317 °C (dec.)
Ki (purified PARP protein): 4.7 nM

CS(=O)(=O)c1ccc(-c2[nH]c3cccc4c3c2CCNC4=O)cc1 [GGGG, 2-(4-Methanesulfonyl-phenyl)-1,3,4,5-tetrahydro-azepino[5,4,3-cd]indol-6-one]
melting point: 308 to 309 °C (dec.)
Ki (purified PARP protein): 6.2 nM

COc1ccccc1-c1[nH]c2cccc3c2c1CCNC3=O [III, 2-(2-Methoxy-phenyl)-1,3,4,5-tetrahydro-azepino[5,4,3-cd]indol-6-one]
melting point: 254 to 255 °C
Ki (purified PARP protein): 40 nM

CNCc1ccc(-c2[nH]c3cc(F)cc4c3c2CCNC4=O)cc1 [IIII, 8-Fluoro-2-(4-methylaminomethyl-phenyl)-1,3,4,5-tetrahydro-azepino[5,4,3-cd]indol-6-one]
Cytotoxicity Potentiation PF50 (A549 cells): 2.6

O=C1NCCc2c(-c3ccncc3)[nH]c3cccc1c23 [JJJ, 2-Pyridin-4-yl-1,3,4,5-tetrahydro-azepino[5,4,3-cd]indol-6-one]
melting point: 250 °C (dec.)
Ki (purified PARP protein): 5.3 nM

O=C1NCCc2c(-c3ccc(CN4CCCC4)cc3)[nH]c3cc(F)cc1c23 [JJJJ, 8-Fluoro-2-(4-pyrrolidin-1-ylmethyl-phenyl)-1,3,4,5-tetrahydro-azepino[5,4,3-cd]indol-6-one]
Cytotoxicity Potentiation PF50 (A549 cells): 2.4
Ki (purified PARP protein): 4.4 nM

CSc1ccccc1-c1[nH]c2cccc3c2c1CCNC3=O [LLL, 2-(2-Methylsulfanyl-phenyl)-1,3,4,5-tetrahydro-azepino[5,4,3-cd]indol-6-one]
melting point: 271 to 272 °C
Ki (purified PARP protein): 32 nM

O=C(Nc1cccc2ccccc12)c1[nH]c2cccc3c2c1CCNC3=O [NNNN, 6-Oxo-1,3,4,5-tetrahydro-1H-azepino[5,4,3-cd]indole-2-carboxylic Acid naphthalen-1-ylamide]
melting point: 330 to 332 °C (dec.)
Ki (purified PARP protein): 10 nM

CNC(=O)c1[nH]c2cccc3c2c1CCNC3=O [OOO, 6-Oxo-3,4,5,6-tetrahydro-1H-azepino[5,4,3-cd]indole-2-carboxylic acid methylamide]
melting point: 321 to 322 °C (dec.)
Ki (purified PARP protein): 14 nM

C#CCNC(=O)c1[nH]c2cccc3c2c1CCNC3=O [OOOO, 6-Oxo-1,3,4,5-tetrahydro-1H-azepino[5,4,3-cd]indole-2-carboxylic acid prop-2-ynylamide]
melting point: 191 to 192 °C
Ki (purified PARP protein): 13 nM

CC(C)NC(=O)c1[nH]c2cccc3c2c1CCNC3=O [PPPP, 6-Oxo-1,3,4,5-tetrahydro-1H-azepino[5,4,3-cd]indole-2-carboxylic acid isopropylamide]
melting point: 261 to 262 °C (dec.)
Ki (purified PARP protein): 32 nM

CC1=NNC(=O)c2cccc3[nH]cc1c23 [QQ, 1,5-Dihydro-3-methyl-[1,2]diazepino[4,5,6-cd]-indol-6-one]
melting point: 335 to 336 °C
Ki (purified PARP protein): 5.5 nM and 4.5 nM

O=C1NCCc2c(-c3cccc(-c4ccccc4)c3)[nH]c3cccc1c23 [RRR, 2-Biphenyl-3-yl-1,3,4,5-tetrahydro-azepino[5,4,3-cd]indol-6-one]
melting point: 160 to 163 °C
Ki (purified PARP protein): 23 nM

COc1ccc(Cl)cc1-c1[nH]c2cccc3c2c1CCNC3=O [SSS, 2-(5-Chloro-2-methoxy-phenyl)-3,4,5,6-tetrahydro-azepino[5,4,3-cd]indol-6-one]
melting point: 160 to 162 °C
Ki (purified PARP protein): 66 nM

O=C1NCCc2c(-c3cccc(CN4CCCCC4)c3)[nH]c3cccc1c23 [SS]
melting point: 235 to 237 °C
Ki (purified PARP protein): 14 nM

Nc1cccc(C#Cc2[nH]c3cccc4c3c2CCNC4=O)c1 [UUU, 2-(3-Amino-phenylethynyl)-1,3,4,5-tetrahydro-azepino[5,4,3-cd]indol-6-one]
melting point: 261 to 262 °C (dec.)
Ki (purified PARP protein): 11.4 nM

O=C1NCCc2c(-c3ccc(CN4CCCC4)cc3)[nH]c3cccc1c23 [UUUU, 2-(4-Pyrrolidin-1-ylmethylphenyl)-3,4,5,6-tetrahydro-1H-azepino[5,4,3-cd]indol-6-one]
Cytotoxicity Potentiation PF50 (A549 cells): 2.0

O=C1NCCc2c(-c3ccc(Cl)c(C(F)(F)F)c3)[nH]c3cccc1c23 [WW, 2-(4-Chloro-3-trifluoromethyl-phenyl)-1,3,4,5-tetrahydro-azepino[5,4,3-cd]indol-6-one]
melting point: 118.5 to 119 °C
Ki (purified PARP protein): 4.4 nM

O=C(O)c1ccc(-c2[nH]c3cccc4c3c2CCNC4=O)cc1 [WWW, 4-(6-Oxo-3,4,5,6-tetrahydro-1H-azepino[5,4,3-cd]indol-2-yl)-benzoic Acid]
melting point: 345.5 to 346.5 °C (dec.)
Ki (purified PARP protein): 263 nM

O=C1NCCc2c(-c3ccc4ccccc4c3)[nH]c3cccc1c23 [XX, 2-Naphthalen-2-yl-1,3,4,5-tetrahydro-azepino[5,4,3-cd]indol-6-one]
melting point: 261 to 262 °C
Ki (purified PARP protein): 4.6 nM

O=C(O)c1[nH]c2cccc3c2c1CCNC3=O [XXX, 6-Oxo-3,4,5,6-tetrahydro-1H-azepino[5,4,3-cd]indole-2-carboxylic Acid]
melting point: 298 to 299 °C (dec.)
Ki (purified PARP protein): 370 nM

O=C1NCCc2c(-c3cccc(CCO)c3)[nH]c3cccc1c23 [ZZ, 2-[3-(2-Hydroxy-ethyl)-phenyl]-1,3,4,5-tetrahydro-azepino[5,4,3-cd]indol-6-one]
melting point: 187.5 to 188.5 °C
Ki (purified PARP protein): 9.7 nM
